From ChEMBL document CHEMBL6153141, “Design, Synthesis, and Mechanism Study of Novel BMX Inhibitors Based on the Core of 1,3,5-Triazin-2-Amine for the Treatment of Gastric Carcinoma” (J Med Chem, 2025)
The source made the active and inactive calls. The rule behind the calls is not given here.

Columns and labels:
[1] = tested on: MGC-803; assay: Inhibition of AKT-mTOR signaling in human […] cells assessed as decrease in phosphorylated mTOR expression at 10 to 20 uM incubated for 48 hrs by Western blot analysis; assay type: cell-based; settings: dose 10-20 µM
[2] = tested on: MGC-803; assay: Induction of apoptosis in human MGC-803 cells assessed as increase in apoptotic cells at 10 to 20 uM incubated for 48 hrs by Annexin V-FITC/PI staining based flow cytometric analysis; assay type: functional, cell-based; settings: dose 10-20 µM
[3] = tested on: MGC-803; assay: Inhibition of colony formation in human MGC-803 cells assessed as decrease in clonogenic ability at 2.5 to 10 uM incubated for 48 hrs by crystal violet staining based analysis; assay type: functional, cell-based; settings: dose 2.5-10 µM
[4] = biological target: Cytochrome P450 2C19 (Homo sapiens, UniProt P33261); assay: Inhibition of CYP2C19 in human liver microsomes using omeprazole as substrate preincubated for 5 mins followed by NADPH addition and measured after 10 mins by LC-MS/MS analysis; assay type: ADME, Microsome
[5] = tested on: A549; assay: cells; settings: Homo sapiens, A549, 72 h
Description: Anticancer activity against human A549 cells assessed as inhibition of cell proliferation incubated for 72 hrs by MTT assay

[6] = tested on: HGC-27; assay: Antitumor activity against human HGC-27 cells xenografted in female BALB/c nude mouse model assessed as reduction in tumor growth at 30 mg/kg/day, ip administered for 21 days relative to control; assay type: functional; design: scale not given: the % may be the effect or the level left; settings: time 21 day
[7] = tested on: MGC-803; assay: Cell cycle arrest in human MGC-803 cells assessed as accumulation of cells at G1 phase at 10 to 20 uM incubated for 48 hrs by flow cytometric analysis; assay type: functional, cell-based; settings: dose 10-20 µM
[8] = tested on: MGC-803; assay: Effect on mTOR expression in human MGC-803 cells at 10 to 20 uM incubated for 48 hrs by Western blot analysis; assay type: functional, cell-based; settings: dose 10-20 µM
[9] = tested on: DU-145; assay: cells; settings: Homo sapiens, DU-145, 72 h
Description: Anticancer activity against human DU-145 cells assessed as inhibition of cell proliferation incubated for 72 hrs by MTT assay

[10] = tested on: HGC-27; assay: Induction of apoptosis in LC3B knockout human HGC-27 cells assessed as increase in cleaved caspase 9 level at 15 uM by Western blot analysis; assay type: functional, cell-based
[11] = tested on: MGC-803; assay: Antiproliferative activity against human MGC-803 cells assessed as reduction in number of EdU-positive cells incubated for 48 hrs by confocal laser scanning microscopic analysis; assay type: functional, cell-based; settings: dose 5-15 µM
[12] = tested on: MDA-MB-231; assay: Anticancer activity against human MDA-MB-231 cells assessed as inhibition of cell proliferation incubated for 72 hrs by MTT assay; assay type: functional, cell-based; settings: MDA-MB-231, 72 h
[13] = tested on: HGC-27; assay: Induction of apoptosis in human HGC-27 cells assessed as increase in cleaved caspase 9 level incubated for 48 hrs by Western blot analysis; assay type: functional, cell-based; settings: dose 5-15 µM
[14] = tested on: HGC-27; assay: Effect on mTOR expression in human HGC-27 cells at 5 to 15 uM incubated for 48 hrs by Western blot analysis; assay type: functional, cell-based; settings: dose 5-15 µM
[15] = tested on: HepG2; assay: Anticancer activity against human HepG2 cells assessed as inhibition of cell proliferation incubated for 72 hrs by MTT assay; assay type: functional, cell-based; settings: HepG2, 72 h
[16] = tested on: HGC-27; assay: Antiproliferative activity against human HGC-27 cells assessed as inhibition of cell viability incubated for 24 to 72 hrs by MTT assay; assay type: functional, cell-based; settings: dose <= 50.0 µM, time 24-72 hrs
[17] = tested on: CWR22R; assay: cells; settings: Homo sapiens, 22Rv1, 72 h
Description: Anticancer activity against human 22Rv1 cells assessed as inhibition of cell proliferation incubated for 72 hrs by MTT assay

[18] = tested on: PC-3; assay: cells; settings: Homo sapiens, PC-3, 72 h
Description: Anticancer activity against human PC-3 cells assessed as inhibition of cell proliferation incubated for 72 hrs by MTT assay

[19] = Half-life in Sprague-Dawley rat at 5 mg/kg, po or 5 mg/kg, iv measured after 24 hrs by LC-MS/MS analysis; assay type: ADME, organism-based; settings: in vivo
[20] = tested on: HGC-27; assay: Induction of autophagy in human HGC-27 cells assessed as increase in LC3B protein expression incubated for 48 hrs by Western blot analysis; assay type: functional, cell-based; settings: dose 5-15 µM
[21] = biological target: Cytochrome P450 1A2 (Homo sapiens, UniProt P05177); assay: Inhibition of CYP1A2 in human liver microsomes using phenacetin as substrate preincubated for 5 mins followed by NADPH addition and measured after 10 mins by LC-MS/MS analysis; assay type: ADME, Microsome
[22] = tested on: HGC-27; assay: Cell cycle arrest in human HGC-27 cells assessed as accumulation of cells at G1 phase at 5 to 15 uM incubated for 48 hrs by flow cytometric analysis; assay type: functional, cell-based; settings: dose 5-15 µM
[23] = tested on: MGC-803; assay: Anti-invasive activity in human MGC-803 cells assessed as decrease in invasion ability at 10 to 20 uM incubated for 48 hrs by transwell assay; assay type: functional, cell-based; settings: dose 10-20 µM
[24] = biological target: Cytoplasmic tyrosine-protein kinase BMX (Homo sapiens) (UniProt P51813); assay: Irreversible inhibition of BMX in human HGC-27 cells at 15 uM preincubated for 48 hrs followed by compound washout and measured within 6 hrs by Western blot analysis; assay type: cell-based
[25] = Toxicity in female BALB/c nude mouse model xenografted with human HGC-27 cells assessed as effect on spleen at 30 mg/kg, ip administered for 21 days by H and E staining based analysis; assay type: organism-based; settings: in vivo, 504 h, time 21 day
[26] = tested on: HGC-27; assay: Inhibition of AKT-mTOR signaling in human HGC-27 cells assessed as decrease in phosphorylated AKT expression at 5 to 15 uM incubated for 48 hrs by Western blot analysis; assay type: cell-based; settings: dose 5-15 µM
[27] = tested on: HGC-27; assay: Induction of apoptosis in human HGC-27 cells assessed as increase in apoptotic cells at 5 to 15 uM incubated for 48 hrs by Annexin V-FITC/PI staining based flow cytometric analysis; assay type: functional, cell-based; settings: dose 5-15 µM
[28] = tested on: HCT-116; assay: Anticancer activity against human HCT-116 cells assessed as inhibition of cell proliferation incubated for 72 hrs by MTT assay; assay type: functional, cell-based; settings: HCT-116, 72 h
[29] = tested on: AGS; assay: Anticancer activity against human AGS cells assessed as inhibition of cell proliferation incubated for 72 hrs by MTT assay; assay type: functional, cell-based
[30] = tested on: HGC-27; assay: Downregulation of BMX protein expression in human HGC-27 cells incubated for 48 hrs by Western blot analysis; assay type: functional, cell-based; settings: dose 5-15 µM
[31] = Toxicity in female BALB/c nude mouse model xenografted with human HGC-27 cells assessed as effect on kidney at 30 mg/kg, ip administered for 21 days by H and E staining based analysis; assay type: organism-based; settings: in vivo, 504 h, time 21 day
[32] = Cytotoxicity against HEK293 cells assessed as inhibition of cell proliferation incubated for 72 hrs by MTT assay; assay type: toxicity, cell-based; settings: human
[33] = Toxicity in female BALB/c nude mouse model xenografted with human HGC-27 cells assessed as effect on heart at 30 mg/kg, ip administered for 21 days by H and E staining based analysis; assay type: organism-based; settings: in vivo, 504 h, time 21 day
[34] = tested on: HGC-27; assay: Induction of apoptosis in human HGC-27 cells assessed as increase in cleaved PARP level incubated for 48 hrs by Western blot analysis; assay type: functional, cell-based; settings: dose 5-15 µM
[35] = tested on: 4T1; assay: Anticancer activity against mouse 4T1 cells assessed as inhibition of cell proliferation incubated for 72 hrs by MTT assay; assay type: functional, cell-based; settings: 4T1, 72 h
[36] = tested on: HGC-27; assay: Induction of apoptosis in LC3B knockout human HGC-27 cells assessed as increase in cleaved PARP level at 15 uM by Western blot analysis; assay type: functional, cell-based
[37] = tested on: HGC-27; assay: Induction of apoptosis in human HGC-27 cells assessed as increase in cleaved caspase 3 level incubated for 48 hrs by Western blot analysis; assay type: functional, cell-based; settings: dose 5-15 µM
[38] = tested on: HGC-27; assay: Antiproliferative activity against human HGC-27 cells assessed as reduction in number of EdU-positive cells incubated for 48 hrs by confocal laser scanning microscopic analysis; assay type: functional, cell-based; settings: dose 5-15 µM
[39] = Cytotoxicity against H9c2 cells assessed as inhibition of cell proliferation incubated for 72 hrs by MTT assay; assay type: toxicity, cell-based; settings: rat

Cytochrome P450 1A2, sequence (P05177 whole entry): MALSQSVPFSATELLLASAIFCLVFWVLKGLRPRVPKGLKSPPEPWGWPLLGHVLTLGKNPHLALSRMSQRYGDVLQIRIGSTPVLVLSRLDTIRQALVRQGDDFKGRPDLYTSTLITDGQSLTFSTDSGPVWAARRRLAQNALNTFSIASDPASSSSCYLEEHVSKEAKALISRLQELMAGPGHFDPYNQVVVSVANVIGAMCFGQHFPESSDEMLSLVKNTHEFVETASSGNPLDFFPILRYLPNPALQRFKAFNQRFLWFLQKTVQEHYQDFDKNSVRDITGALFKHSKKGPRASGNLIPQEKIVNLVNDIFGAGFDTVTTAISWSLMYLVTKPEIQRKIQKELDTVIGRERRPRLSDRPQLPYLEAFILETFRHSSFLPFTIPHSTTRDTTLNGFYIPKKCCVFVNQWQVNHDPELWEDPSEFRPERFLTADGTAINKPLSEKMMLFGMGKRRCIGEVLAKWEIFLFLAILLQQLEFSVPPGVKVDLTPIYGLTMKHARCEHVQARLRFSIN
Cytochrome P450 2C19, sequence (P33261 whole entry): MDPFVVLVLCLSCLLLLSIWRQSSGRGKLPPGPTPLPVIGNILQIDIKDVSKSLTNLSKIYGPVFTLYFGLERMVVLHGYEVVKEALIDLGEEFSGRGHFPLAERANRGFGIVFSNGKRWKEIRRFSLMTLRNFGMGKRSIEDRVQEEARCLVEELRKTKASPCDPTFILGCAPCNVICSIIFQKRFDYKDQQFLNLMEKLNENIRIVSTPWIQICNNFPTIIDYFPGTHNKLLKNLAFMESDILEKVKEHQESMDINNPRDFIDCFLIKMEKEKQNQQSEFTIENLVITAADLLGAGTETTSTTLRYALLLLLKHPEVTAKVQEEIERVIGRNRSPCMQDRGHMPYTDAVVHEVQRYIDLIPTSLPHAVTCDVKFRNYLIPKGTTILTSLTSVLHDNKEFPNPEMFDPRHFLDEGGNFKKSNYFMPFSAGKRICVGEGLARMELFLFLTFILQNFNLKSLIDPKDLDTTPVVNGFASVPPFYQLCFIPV
Cytoplasmic tyrosine-protein kinase BMX (Homo sapiens), sequence (P51813 whole entry): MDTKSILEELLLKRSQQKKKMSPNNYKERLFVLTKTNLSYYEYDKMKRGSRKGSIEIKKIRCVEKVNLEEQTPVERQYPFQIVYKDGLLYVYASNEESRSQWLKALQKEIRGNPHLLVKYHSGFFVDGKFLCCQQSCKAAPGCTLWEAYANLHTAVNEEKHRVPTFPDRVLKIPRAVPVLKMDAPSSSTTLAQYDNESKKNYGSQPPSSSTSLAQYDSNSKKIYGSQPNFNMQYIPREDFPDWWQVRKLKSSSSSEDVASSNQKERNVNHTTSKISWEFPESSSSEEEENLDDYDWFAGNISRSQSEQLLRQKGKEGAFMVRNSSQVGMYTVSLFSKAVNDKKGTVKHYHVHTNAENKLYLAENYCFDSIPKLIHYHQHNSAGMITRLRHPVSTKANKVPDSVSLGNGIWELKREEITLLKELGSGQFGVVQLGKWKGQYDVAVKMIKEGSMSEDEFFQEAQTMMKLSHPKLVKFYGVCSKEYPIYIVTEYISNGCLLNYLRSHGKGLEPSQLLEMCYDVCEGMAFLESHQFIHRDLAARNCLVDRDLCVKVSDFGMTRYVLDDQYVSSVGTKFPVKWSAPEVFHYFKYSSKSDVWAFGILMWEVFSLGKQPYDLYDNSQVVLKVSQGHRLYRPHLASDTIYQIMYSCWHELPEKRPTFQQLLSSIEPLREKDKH

C=CS(=O)(=O)N1CCC[C@@H](Nc2nc(N)nc(Nc3cccc(Oc4ccccc4)c3)n2)C1
inhibition [1]: Active | Activity [2]: Active | inhibition [3]: Active | IC50 [4]: > 100 µM | IC50 [5]: 29.4 µM | Activity [6]: 49.93% | Activity [7]: Active | Activity [8]: inactive | IC50 [9]: 10.4 µM | Activity [10]: Active | Activity [11]: Dose-dependent-effect | IC50 [12]: 19.7 µM | Activity [13]: Dose-dependent-effect | Activity [14]: inactive | IC50 [15]: > 32 µM | Activity [16]: Dose-dependent-effect | IC50 [17]: 13.4 µM | IC50 [18]: 17.2 µM | half-life [19]: 18.3 h | Activity [20]: Dose-dependent-effect | IC50 [21]: > 100 µM | Activity [22]: Active | Activity [23]: Active | inhibition [24]: Active | Activity [25]: Non-toxic | inhibition [26]: Active | Activity [27]: Active | IC50 [28]: 15.9 µM | IC50 [29]: 8 µM | Activity [30]: Dose-dependent-effect | Activity [31]: Non-toxic | IC50 at 72 h [32]: > 32 µM | Activity [33]: Non-toxic | Activity [34]: Dose-dependent-effect | IC50 [35]: 16.6 µM | Activity [36]: Active | Activity [37]: Dose-dependent-effect | Activity [38]: Dose-dependent-effect | IC50 at 72 h [39]: > 32 µM
